# From patent publication US11478416B2, “Ingredients for use in personal care compositions” (Croda, Inc., priority 2016, dated 2022)
# Entries after “also recorded” stand apart in the source; their conditions may differ.
# Assay: Frizz control test, panel ranking of tresses at 75% RH
# Conditions: from panel ranking
# Procedure: The formulations H to M as set out in Table 4 were prepared. Each hair conditioner formulation was prepared by combining the Part A ingredients while mixing and heating to 75-80° C., and separately combining the Part B ingredients and heating to the same temperature. The Part A and Part B ingredients were then combined while mixing at temperature and allowed to cool to 40° C. Once at 40° C., the Part C ingredients were added and the pH adjusted to about 4.5±0.5 using lactic acid.
# For each formulation H to M, 7 Brazilian curly hair tresses available from International Hair Importers Inc., NYC, were cut to 1.5 cm wide and 20 cm long.
# The tresses were washed with a simple cleansing shampoo (SLES/Betaine shampoo) using a 1:10 w/w shampoo to hair ratio for 1 minute. The tresses were then rinsed with warm water for 1 minute or until free of foam. 3 g of the respective formulation was then massaged into the hair tresses for 1 minute. The treated tresses were left to sit for 20 minutes and then the formulations rinsed out of the hair for 45 seconds. Once rinsed, the tresses were blown dry using a blow dryer and round brush, and then flat-ironed using a ceramic iron at 400° F. for 5 passes. […]
# The panelists were asked to rank the tresses from 1 (least frizz) to 6 (most frizz). The mode and average of the panelists' rankings were calculated for each to give the overall ranking.
substance,measurement,value
Isostearic Acid—DETA Tertiary Amine [Example 3a],"frizz control, conclusion in words",resisted frizz the best; also recorded: aids in frizz control
